Measurements published in paper PMC9231138, “Dihydrotanshinone I Enhances Cell Adhesion and Inhibits Cell Migration in Osteosarcoma U−2 OS Cells through CD44 and Chemokine Signaling” (Molecules, 2022).

Assays:
[1] = system: cyclin D1; assay: RT-PCR cyclin D1 mRNA in U−2 OS cells; type: cell-based, human; details: 24 h
Method: (§1) Total RNA within cells was extracted by the RNAeasy™ Animal Long RNA Isolation Kit with Spin Column (Shanghai, Beyotime); the concentrations and OD260/OD280 and OD230/OD260 values were measured by NanoDrop. Five micrograms of RNA was used for reverse transcription; each sample was diluted to 16 μL, and 4 μL of synthesized premix solution (5×) was added, then the mixtures were placed in a 42 °C water bath for 10 min, then an 80 °C water bath for 10 min to deactivate reverse transcriptase. After reverse transcription, each sample was diluted to 140 μL. PCR amplification was carried out by the ABI700 real-time PCR system, and the amplification reaction was detected with a SYBR probe. After PCR, actin and GAPDH were used as internal references, and the relative standard curve method (2^−ΔΔcT) determined the relative expression of mRNA.

[2] = system: CD44; assay: RNA-seq transcriptome, CD44 expression; type: cell-based, human; details: DS−1 6.25 µM, 24 h
Method: Sample preparation: U−2 OS cells were seeded in a 10 cm culture dish, and we cultured them to the logarithmic growth phase, suctioned the previous medium, and added new medium with DS−1 at 0 and 6.25 μM; each group was repeated two times. After 24 h of culture, the dish was washed with PBS reagent 3 times. One milliliter of TRIzol reagent was added to every dish for cell lysate and then collected in centrifuge tubes.
Transcriptome sequencing and analysis were carried out by Novogene Bioinformatics Technology Co., Ltd. (Beijing, China).
Raw data in the fastq format were firstly processed through in-house Perl scripts. In this step, clean data were obtained by removing reads containing adapter or containing ploy-N and low-quality reads from raw data. […]
Reference genome and gene model annotation files were downloaded from the genome website directly. The index of the reference genome was built using Hisat2 v2.0.5 (https://github.com/DaehwanKimLab/hisat2, accessed on 4 May 2022), and paired-end clean reads were aligned to the reference genome using Hisat2 v2.0.5. FeatureCounts v1.5.0-p3 (https://github.com/byee4/featureCounts, accessed on 4 May 2022) was used to count the reads numbers mapped to each gene. Then the Fragments PerKilobase of transcript sequence per Millions […] (FPKMs) of each gene were calculated based on the length of the gene and reads’ count mapped to this gene. […]

[3] = system: CDK2; assay: RT-PCR CDK2 mRNA in U−2 OS cells; type: cell-based, human; details: 24 h
Method: as §1

[4] = system: cyclin E1; assay: RT-PCR cyclin E1 mRNA in U−2 OS cells; type: cell-based, human; details: 24 h
Method: as §1

[5] = system: phospho−FOXO1; assay: Western blot phospho−FOXO1; type: cell-based, human
Method: Figure 3 DS−1 inhibited the expression of transcription factor FOXO1 in U−2 OS cells. (A) U−2 OS cells were treated with DS−1 at 0, 3.125, 6.25, and 12.5 μM, and the changes in FOXO1 were analyzed by immunofluorescent staining, followed by confocal microscopy imaging. (B) U−2OS cells were treated with DS−1 at 0, 3.125, 6.25, and 12.5 μM, and FOXO1 and pFOXO1 were analyzed by Western blot; the changes were presented in histograms (C,D). (E) U−2 OS cells were treated with DS−1 at 6.25 μM for 0, 12, 24, and 48 h, then FOXO1 was analyzed by Western blot, and the changes are presented in the histogram (F). (G) The pFOXO1/FOXO1 value is shown in the histogram. […]
Sample preparation: U−2 OS cells seeded in 10 cm Petri dishes were collected and washed with ice-cold PBS and RIPA lysis buffer with PMAF; phosphatase inhibitor was added, and the tubes were placed on ice for 30 min and vortexed for 30 s at intervals of 10 min. […] The protein samples were placed on ice, and the concentration of each protein sample was measured by the BCA kit (Thermo). […]
Antibody staining: We blocked the membrane for 1 h at room temperature using 5% blocking solution, then incubated the membrane with appropriate dilutions of the primary antibody in the blocking solution overnight at 4 °C. […] Images were acquired using darkroom development techniques for chemiluminescence and analyzed by Image J.

[6] = system: HeLa cells; assay: MTT cell proliferation assay, HeLa cells; type: cell-based; details: Homo sapiens, 24 h, read-out: IC50 HeLa cells (24 h)
Method: (§2) The effects of tanshinones (DS−1 to DS−5) on the proliferation of U−2 OS cells, HeLa cells, and NRK−49F cells were measured by the classical MTT method with minor modifications as follows. Cells were seeded at 5000 per well in 96-well plates, with each group being repeated in 5 wells, and were incubated for 12 h. DS−1 to DS−5 were added at gradient concentrations, then incubated for 24 and 48 h, respectively. Then, 20 μL MTT solution (solved in PBS, 5 mg/mL) was added to every well, and the cells were further incubated at 37 °C for 4 h until a purple precipitate was visible. The plate was centrifuged at 1000 rpm for 1 min; the supernatant was suctioned, and 150 μL of DMSO was added per well; the plate was shaken on a shaker protected from light for 15 min. We placed the plate in an enzyme marker and measured the absorbance values at a 490 nm wavelength.

[7] = system: NRK−49F cells; assay: MTT cell proliferation assay, NRK−49F cells; type: cell-based, rat; details: Rattus norvegicus, 24 h, read-out: IC50 NRK−49F cells (24 h)
Method: as §2

[8] = first of three DS−1 doses (2.5 µM per Fig. 5 legend)
[9] = second of three DS−1 doses (5.0 µM per Fig. 5 legend)
[10] = third of three DS−1 doses (7.5 µM per Fig. 5 legend)

Cc1cccc2c3c(ccc12)C1=C(C(=O)C3=O)[C@@H](C)CO1 [DS−1, 15,16-Dihydrotanshinone I] was tested, and the “cyclin D1 mRNA, fold of the control group” value (shortened to “cyclin D1 mRNA, fold”) [1, 8] was 0.27 ± 0.06 fold, the “cyclin D1 mRNA, fold” value [1, 9] was 0.29 ± 0.06 fold and the “cyclin D1 mRNA, fold” value [1, 10] was 0.20 ± 0.04 fold. For the same compound, the “upregulation of CD44 in transcriptome” value [2] was 2.94 ± 0.55 fold, the “CDK2 mRNA, fold of the control group” value [3, 8] was 0.85 ± 0.08 fold and the “CDK2 mRNA, fold of the control group” value [3, 9] was 0.80 ± 0.16 fold. For the same compound, the “CDK2 mRNA, fold of the control group” value [3, 10] was 0.66 ± 0.07 fold, the “cyclin E1 mRNA, fold of the control group” value (“cyclin E1 mRNA, fold” below) [4, 8] was 0.52 ± 0.04 fold and the “cyclin E1 mRNA, fold” value [4, 9] was 0.48 ± 0.08 fold. The “cyclin E1 mRNA, fold” value [4, 10] was 0.36 ± 0.04 fold, the “phosphorylation of FOXO1 (pFOXO1/FOXO1 value)” value ([5]; with increasing concentration of DS−1, Image J) was “increased” and the “phospho−FOXO1” value ([5]; with the concentration of DS−1 (3.125, 6.25, 12.5 μM) and the time of treatment (6.25 μM, 12, 24, 48 h)) was “reduced”. It also gave an IC50 [6] of 15.5 ± 0.98 µM and an IC50 [7] of 25 ± 1.98 µM.
